Measurements taken from paper PMC4467794 (Cell, 2015).

Biological target: T1, ALAS2 (apoALAS2) (Homo sapiens, UniProt P22557)
T1 sequence (P22557 50-587): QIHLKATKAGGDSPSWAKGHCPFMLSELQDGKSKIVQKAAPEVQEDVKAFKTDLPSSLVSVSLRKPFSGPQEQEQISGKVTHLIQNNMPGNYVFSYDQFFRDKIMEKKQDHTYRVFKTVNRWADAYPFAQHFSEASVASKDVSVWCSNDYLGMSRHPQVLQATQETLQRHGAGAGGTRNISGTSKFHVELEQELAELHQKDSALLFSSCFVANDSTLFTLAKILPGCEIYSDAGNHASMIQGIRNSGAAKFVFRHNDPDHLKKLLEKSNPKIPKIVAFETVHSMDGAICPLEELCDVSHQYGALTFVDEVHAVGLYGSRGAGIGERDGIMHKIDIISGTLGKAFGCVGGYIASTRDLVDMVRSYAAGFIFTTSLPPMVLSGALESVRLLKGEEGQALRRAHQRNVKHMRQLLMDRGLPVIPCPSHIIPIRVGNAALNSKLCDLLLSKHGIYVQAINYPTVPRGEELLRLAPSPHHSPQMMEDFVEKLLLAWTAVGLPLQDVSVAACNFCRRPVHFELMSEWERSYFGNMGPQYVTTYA
Test: PLP reactivation of apoenzyme, NAD-coupled ALAS assay
Type: biochemical
Conditions: apoALAS2 5 µM, PLP 50 µM, pH 7.6, 30 °C, 5 mM MgCl2, 130 mM KCl, 0.75 mg/ml BSA; covalent

PLP reactivation of apoenzyme, NAD-coupled ALAS assay: apoALAS2 activation by PLP in vitro.
SMILES: Cc1ncc(COP(=O)(O)O)c(C=O)c1O [pyridoxal phosphate]
